Measurements reported in the supplement of paper PMC10307832.

How the values were obtained:
Test in all cases: relative viability (nuclei count vs DMSO), 5 days (fraction); higher = more cells survive
NCI-H1793 = system: NCI-H1793
Summary of the method: (§1)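 The day after seeding in 1536-well plates, lung cancer cell lines were treated by pin tool with a single drug, or with a fixed anchor-drug dose together with five library-drug doses (not always all listed) in √10 steps. After 5 days, a combined fix-and-stain solution (final 0.05% Triton X-100, 1% formaldehyde, 1 ug/ml Hoechst) was added. Nuclei counted on 4× images gave relative viability as treated counts over vehicle counts, reported as the median of duplicate plates.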

NCI-H596 = system: NCI-H596
Summary of the method: as §1

NCI-H23 = system: NCI-H23
Summary of the method: as §1

NCI-H3122 = system: NCI-H3122
Summary of the method: as §1

NCI-H2085 = system: NCI-H2085
Summary of the method: as §1

LU99A = system: LU99A
Summary of the method: as §1

NCI-H322M = system: NCI-H322M
Summary of the method: as §1

NCI-H522 = system: NCI-H522
Summary of the method: as §1

NCI-H2087 = system: NCI-H2087
Summary of the method: as §1

SK-LU-1 = system: SK-LU-1
Summary of the method: as §1

HARA = system: HARA
Summary of the method: as §1

NCI-H1755 = system: NCI-H1755
Summary of the method: as §1

Q: What does the source list for `Cc1csc(=NC2CCCCC2)n1/N=C/c1ccc(O)c(O)c1O` [MIM1] + Cc1cc(Nc2cc(N3CCN(C)CC3)nc(Sc3ccc(NC(=O)C4CC4)cc3)n2)n[nH]1 [Tozasertib] (partner 0.1 µM)?
A: relative viability (NCI-H1793; first compound 6.325 µM): 0.298; relative viability (NCI-H1793; first compound 20 µM): 0.34; relative viability (NCI-H596; first compound 0.2 µM): 0.929; relative viability (NCI-H596; first compound 0.6325 µM): 0.931; relative viability (NCI-H596; first compound 2 µM): 0.817; relative viability (NCI-H596; first compound 6.325 µM): 0.872; relative viability (NCI-H596; first compound 20 µM): 0.782; relative viability (NCI-H23; first compound 0.2 µM): 0.398; relative viability (NCI-H23; first compound 2 µM): 0.325; relative viability (NCI-H23; first compound 6.325 µM): 0.175; relative viability (NCI-H23; first compound 20 µM): 0.15; relative viability (NCI-H3122; first compound 0.2 µM): 0.446; relative viability (NCI-H3122; first compound 0.6325 µM): 0.464; relative viability (NCI-H3122; first compound 2 µM): 0.366; relative viability (NCI-H3122; first compound 6.325 µM): 0.155; relative viability (NCI-H3122; first compound 20 µM): 0.0965; relative viability (NCI-H2085; first compound 0.2 µM): 0.781; relative viability (NCI-H2085; first compound 0.6325 µM): 0.755; relative viability (NCI-H2085; first compound 2 µM): 0.763; relative viability (NCI-H2085; first compound 6.325 µM): 0.598; relative viability (NCI-H2085; first compound 20 µM): 0.533; relative viability (LU99A; first compound 0.2 µM): 0.286; relative viability (LU99A; first compound 0.6325 µM): 0.274; relative viability (LU99A; first compound 2 µM): 0.288; relative viability (LU99A; first compound 6.325 µM): 0.219; relative viability (LU99A; first compound 20 µM): 0.177; relative viability (NCI-H322M; first compound 0.2 µM): 0.497; relative viability (NCI-H322M; first compound 0.6325 µM): 0.456; relative viability (NCI-H322M; first compound 2 µM): 0.513; relative viability (NCI-H322M; first compound 6.325 µM): 0.447; relative viability (NCI-H322M; first compound 20 µM): 0.26; relative viability (NCI-H522; first compound 0.2 µM): 0.622; relative viability (NCI-H522; first compound 0.6325 µM): 0.572; relative viability (NCI-H522; first compound 2 µM): 0.484; relative viability (NCI-H522; first compound 6.325 µM): 0.608; relative viability (NCI-H522; first compound 20 µM): 0.452; relative viability (NCI-H2087; first compound 0.2 µM): 0.26; relative viability (NCI-H2087; first compound 0.6325 µM): 0.284; relative viability (NCI-H2087; first compound 2 µM): 0.249; relative viability (NCI-H2087; first compound 6.325 µM): 0.22; relative viability (NCI-H2087; first compound 20 µM): 0.2; relative viability (SK-LU-1; first compound 0.2 µM): 0.329; relative viability (SK-LU-1; first compound 0.6325 µM): 0.374; relative viability (SK-LU-1; first compound 2 µM): 0.393; relative viability (SK-LU-1; first compound 6.325 µM): 0.273; relative viability (SK-LU-1; first compound 20 µM): 0.283; relative viability (HARA; first compound 0.2 µM): 0.101; relative viability (HARA; first compound 2 µM): 0.0957; relative viability (HARA; first compound 6.325 µM): 0.112; relative viability (HARA; first compound 20 µM): 0.0634; relative viability (NCI-H1755; first compound 0.2 µM): 0.606; relative viability (NCI-H1755; first compound 0.6325 µM): 0.629; relative viability (NCI-H1755; first compound 2 µM): 0.563; relative viability (NCI-H1755; first compound 6.325 µM): 0.477; relative viability (NCI-H1755; first compound 20 µM): 0.266
